According to patent US11390621B2, “Chiral indole compounds and their use” (ARIAGEN, INC., priority 2019, dated 2022):
Where “and” joins values, the source holds several entries; their conditions need not be identical. Equal values may be shown once. Read-outs that look alike come from different tables or passages of the source.

Legend:
Pan02 cancer cells = experiment: Pan02 subcutaneous syngeneic mouse tumor model (Example 48); assay type: in vivo, C57BL/6 mice; conditions: for TGI: 80 mg/kg, IP
Experimental: (§1) This example describes in vivo studies that evaluated the anti-cancer efficacy of ARI-143, ARI-164, ARI-165, and ARI-186 in syngeneic mouse tumor models. Mice implanted subcutaneously with EMT-6 or Pan02 cancer cells were treated with ARI-143, ARI-164, ARI-165, ARI-186, or vehicle controls, as described below.
(§2) A monolayer culture of tumor cells was maintained in vitro in DMEM or RPMI1640 medium supplemented with 10% fetal bovine serum at 37° C. in an atmosphere of 5% CO2. Cells in exponential growth phase were harvested and quantitated by cell counter before tumor inoculation. The cell lines used are described in the table below.
(§3) Two subcutaneous syngeneic mouse tumor models were generated by innoculating female BALB/C or C57BL/6 mice with cancer cells at their right lower or front flank as detailed in the table below:
(§4) Each mouse was inoculated subcutaneously with tumor cells in 0.1 mL of PBS. Treatments were started when the mean tumor size reached approximately 80-120 mm^3 (around 100 mm^3). The administration of the test compounds and the animal number in each study group are shown in the study design. The date of tumor cell inoculation was denoted as day 0.
(§5) ARI-143, ARI-164, and ARI-165 were dissolved in DMSO at the final concentration of 26.7 mg/ml and stored at room temperature. In Pan02 studies of ARI-164 and ARI-186, both compounds were dissolved in 100% PEG400.
Randomization of animals was started when the mean tumor size reached approximately 90 mm^3 to form the mouse study groups. The randomization was-performed based on “Matched distribution” method using the multi-task method (StudyDirector™ software, version 3.1.399.19)/randomized block design. […]
(§6) After tumor cell inoculation, the mice were checked daily for morbidity and mortality. During routine monitoring, the mice were checked for tumor growth and any effects of the treatment on behavior such as mobility, food and water consumption, body weight gain/loss (body weights were measured twice per week after randomization), eye/hair matting, and any other abnormalities. Mortality and observed clinical signs were recorded for individual mice in detail.
(§7) Tumor volumes were measured twice per week in two dimensions using a caliper, and the volume was expressed in mm^3 using the formula: V=(L×W×W)/2, where V is tumor volume, L is tumor length (the longest tumor dimension) and W is tumor width (the longest tumor dimension perpendicular to L). Dosing as well as tumor and body weight measurements was conducted in a Laminar Flow Cabinet. The body weights and tumor volumes were measured by using StudyDirector™ software (version 3.1.399.19). Dosing Holiday
(§8) Tumor growth inhibition percentage (TGI %) is an indicator for antitumor activity of a drug compound, and expressed as: TGI(%)=100×(1−T/C), where T and C are the mean tumor volume (or weight) of the treated and control groups, respectively, on a given day. Statistical analysis of the difference in mean tumor volume (MTV) among the groups was conducted using the data collected on the day when the MTV of the vehicle group reached the humane endpoints, so that TGI could be derived for all or most mice enrolled in the study.

EMT-6 cancer cells = experiment: EMT-6 subcutaneous syngeneic mouse tumor model (Example 48); assay type: in vivo, BALB/C mice; conditions: 40 mg/kg, IP
Experimental: as §1, §2, §3, §4, §5
Randomization of animals was started when the mean tumor size reached approximately 90 mm^3 to form the mouse study groups. The randomization was-performed based on “Matched distribution” method using the multi-task method (StudyDirector™ software, version 3.1.399.19)/randomized block design. The mouse groups (ten in each group) were treated with vehicle (DMSO or PEG400) or the test compounds at a dose of 26-80 mg/kg by intraperitoneal (i.p.). injection, QD for 28 days or longer.
as §6, §7, §8

[1] = In vivo pharmacokinetic studies in mice; set-up: species or system Balb/C mice; conditions: mice
H22 = H22 syngeneic mouse tumor model, ARI-164 / anti-PD-1 / combination (Example 49); assay type: in vivo
Experimental: (§9) In this example, the in vivo anti-tumor efficacy of a combination of ARI-164 with an anti-PD-1 antibody was evaluated using a panel of seven subcutaneous syngeneic mouse tumor models.
(§10) Seven subcutaneous syngeneic mouse tumor models were generated by innoculating female BALB/C or C57BL/6 mice with cancer cells at their right lower or right front flank followed by randomization as detailed in Table 10 below.
(§11) A solution of a rat monoclonal anti-mouse PD-1 antibody (isotype IgG2a, κ) at a concentration of 6.61 mg/ml was obtained from BioXcell (InVivoMAb anti-mouse PD-1 (CD279), Clone RMP1-14, Cat #BE0146)) and store at 4° C. The antibody solution was diluted with PBS to obtain a 1 mg/ml dosing solution.
(§12) ARI-164 powder was stored at −20° C. The powder of the compound was dissolved in DMSO to obtain dosing solutions at 26.7 mg/ml for administration to mice at 40 mg/kg, respectively.
Seven studies using the seven subcutaneous syngeneic mouse tumor models were performed. In each study, 80 mice were enrolled and randomly allocated to eight different study groups, with 10 mice in each study group. The mean tumor size at randomization was approximately 80-120 mm^3 (around 100 mm^3). Randomization was performed based on “Matched distribution” randomization method (StudyDirector™ software, version 3.1.399.19). […]
(§13) The data was collected and analyzed as described above in Example 48.

4T-1 = 4T-1 syngeneic mouse tumor model, ARI-164 / anti-PD-1 / combination (Example 49); assay type: in vivo; conditions: 4T-1 model
Experimental: as §9, §10, §11, §12
Seven studies using the seven subcutaneous syngeneic mouse tumor models were performed. In each study, 80 mice were enrolled and randomly allocated to eight different study groups, with 10 mice in each study group. The mean tumor size at randomization was approximately 80-120 mm^3 (around 100 mm^3). Randomization was performed based on “Matched distribution” randomization method (StudyDirector™ software, version 3.1.399.19). […] All the drugs and vehicle controls were injected to the mice intraperitoneally.
as §13

[2] = Balb/C, mouse, plasma, single 40 mg/kg oral dose
[3] = Balb/C, mouse, plasma, single 40 mg/kg oral dose, from mean profile
[4] = single 40 mg/kg oral dose, Mean
[5] = single 40 mg/kg oral dose, individual mouse (M1-M3), 40 mg/kg
[6] = intraperitoneal, anti-PD-1 10 mg/kg BIW, ARI-164 40 mg/kg QD

## CC[C@H](O)c1csc(C(=O)c2c[nH]c3cc(F)ccc23)n1 [ARI-164, (S)-(6-Fluoro-1H-indol-3-yl)(4-(1-hydroxypropyl)thiazol-2-yl)methanone]
Pan02 cancer cells; study day 0
  TGI: −0.6%
Pan02 cancer cells; study day 4
  TGI: −4.4%
Pan02 cancer cells; study day 7
  TGI: −8.4%
Pan02 cancer cells; study day 11
  TGI: 26.6%
Pan02 cancer cells; study day 14
  TGI: 40.6%
Pan02 cancer cells; study day 18
  TGI: 35.3%
Pan02 cancer cells; Pan02 tumors, 80 mpk i.p. QD, study day 18
  tumor inhibition versus vehicle: 35%
EMT-6 cancer cells; study day 6
  TGI: 0.1%
EMT-6 cancer cells; study day 10
  TGI: −10.8%
EMT-6 cancer cells; study day 13
  TGI: −2.4%
EMT-6 cancer cells; study day 17
  TGI: 20.8%
EMT-6 cancer cells; study day 20
  TGI: 41.6%
EMT-6 cancer cells; study day 24
  TGI: 54.7%
EMT-6 cancer cells; study day 27
  TGI: 54.3%
EMT-6 cancer cells; study day 31
  TGI: 56.2%
[1]; [2]
  AUC: 3010 ng·h/mL
  bioavailability: 15.1%
[1]; [3]
  Cmax: 1870 ng/mL
  Tmax: 0.5 h
[1]; Balb/C, mouse, plasma, single 40 mg/kg oral dose, from mean profile, read-out: AUC0-t
  AUC(0-t): 3010 ng·h/mL
[1]; Balb/C, mouse, plasma, single 40 mg/kg oral dose, from mean profile, read-out: AUC0-∞
  AUC(0-inf): 3020 ng·h/mL
[1]; Balb/C, mouse, plasma, single 40 mg/kg oral dose, from mean profile, read-out: t1/2 (converted)
  half-life: 1.4 h
[1]; Balb/C, mouse, plasma, read-out: half-life (converted)
  half-life: 1.4 h
[1]; [4]
  plasma concentration at 0.083 hr: 206.7
  plasma concentration at 0.25 hr: 1623
  plasma concentration at 0.5 hr: 1867
  plasma concentration at 1 hr: 1193
  plasma concentration at 2 hr: 506
  plasma concentration at 4 hr: 82.8
  plasma concentration at 8 hr: 7.1
  plasma concentration at 12 hr: 6.5
[1]; single 40 mg/kg oral dose, individual mouse (M1-M3)
  plasma concentration at 24 hr: BLQ
[1]; [5]
  plasma concentration at 0.083 hr: 330 and 202 and 88
  plasma concentration at 0.25 hr: 1780 and 1740 and 1350
  plasma concentration at 0.5 hr: 1960 and 2020 and 1620
  plasma concentration at 1 hr: 1050 and 1600 and 930
  plasma concentration at 2 hr: 463 and 572 and 482
  plasma concentration at 4 hr: 101 and 79.3 and 68.2
  plasma concentration at 8 hr: 7.1 and BLQ (2×)
  plasma concentration at 12 hr: 7.5 and BLQ and 5.6
H22; combination with anti-PD-1 antibody, study day 24
  tumor inhibition (in words): significant tumor inhibition
H22; [6]
  TGI (%): 46.9%
4T-1; ARI-164 alone, 40 mg/kg i.p.
  effect on tumor growth (in words): delay tumor growth
4T-1; combination with anti-PD-1 antibody, study day 31
  tumor growth inhibition (in words): statistically significant delta in tumor growth inhibition
4T-1; [6]
  TGI (%): 45.3%
